# Reference: US12366579B2, “Sulfur-heterocycle exchange chemistry and uses thereof” (University of Virginia Patent Foundation, priority 2019, dated 2025)
# Entries after “also recorded” stand apart in the source; their conditions may differ.
# Experiments:
# [1] = target: T1, human fumarylacetoacetase (FAAA) (Homo sapiens, UniProt P16930); test: Chemical proteomics analysis and gel-based screen of human FAAA with HHS SuTEx ligands; type: binding
# T1 construct: made in house; host or cells: HEK293T, soluble proteome
# T1 sequence (P16930 whole entry): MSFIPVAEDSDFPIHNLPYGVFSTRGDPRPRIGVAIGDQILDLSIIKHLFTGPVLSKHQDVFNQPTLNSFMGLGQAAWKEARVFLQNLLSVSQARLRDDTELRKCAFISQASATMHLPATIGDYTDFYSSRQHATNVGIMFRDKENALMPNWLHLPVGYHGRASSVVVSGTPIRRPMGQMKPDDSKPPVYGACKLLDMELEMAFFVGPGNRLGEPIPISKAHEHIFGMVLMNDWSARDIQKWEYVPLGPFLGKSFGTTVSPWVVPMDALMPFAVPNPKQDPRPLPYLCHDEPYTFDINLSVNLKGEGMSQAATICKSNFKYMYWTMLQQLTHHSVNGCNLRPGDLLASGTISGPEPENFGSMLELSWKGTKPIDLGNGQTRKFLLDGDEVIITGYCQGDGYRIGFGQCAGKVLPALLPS
# Protocol: FIGS. 44A-44C. Modification of human fumarylacetoacetase (FAAA) with HHS SuTEx ligands. FIG. 44A is a series of graphs showing the chemical proteomics analysis of human FAAA using an HHS SuTEx ligand, HHS0401 (25 μM) shown in FIG. 43. HHS0401 modifies the tyrosine at residue 244. FIG. 44B is an image of a gel-based chemical proteomic screen for human FAAA fragment ligands. Recombinant hFAAA-HEK293T soluble proteomes pretreated with indicated fragment (25 μM, 120 min) followed by labeling with HHS-475 (100 μM, 120 min).
# (§1) In addition, SuTEx fragment EKT231 (see FIG. 46A) modifies EDC3 at tyrosine 475.
# [2] = target: human prostaglandin reductase 2 (PTGR2) (Homo sapiens, UniProt Q8N8N7); test: Chemical proteomics analysis and gel-based screen of human PTGR2 with HHS SuTEx ligands; type: binding
# human prostaglandin reductase 2 (PTGR2), sequence (Q8N8N7 whole entry): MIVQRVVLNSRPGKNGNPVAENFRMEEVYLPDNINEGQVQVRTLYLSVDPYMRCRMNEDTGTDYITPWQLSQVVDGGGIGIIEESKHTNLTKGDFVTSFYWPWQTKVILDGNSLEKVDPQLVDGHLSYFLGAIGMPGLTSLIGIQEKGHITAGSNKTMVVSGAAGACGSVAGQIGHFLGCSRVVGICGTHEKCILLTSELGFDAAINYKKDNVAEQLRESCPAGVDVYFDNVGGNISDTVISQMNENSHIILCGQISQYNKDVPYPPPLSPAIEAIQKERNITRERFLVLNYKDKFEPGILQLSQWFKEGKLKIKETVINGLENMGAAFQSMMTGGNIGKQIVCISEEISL
# Text: FIGS. 45A and 45B: Modification of human prostaglandin reductase 2 (PTGR2) with HHS SuTEx ligands. HHS0701 modifies the tyrosine at residue 100.
# as §1
# [3] = target: T2, recombinant GSTP1 lysates (Homo sapiens, UniProt P09211); test: GSTP1 biochemical substrate assay (GSH conjugation to BDNB); details: negative control probes; highest concentration tested 100 μM
# T2 construct: FLAG (C); host or cells: HEK293T, transient transfection; soluble proteome used unpurified
# T2 sequence (P09211 whole entry): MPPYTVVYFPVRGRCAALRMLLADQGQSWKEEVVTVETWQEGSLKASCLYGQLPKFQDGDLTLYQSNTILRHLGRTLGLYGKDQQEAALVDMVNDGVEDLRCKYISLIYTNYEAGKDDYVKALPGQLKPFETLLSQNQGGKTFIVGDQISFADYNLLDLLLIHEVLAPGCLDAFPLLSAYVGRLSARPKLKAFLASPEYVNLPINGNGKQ
# Protocol: GSTP1 Biochemical Substrate Assay
# Recombinant GSTP1-HEK293T soluble cell proteomes were diluted to 1 mg ml^−1 in assay buffer (100 mM NaH2PO4, pH 7.0). Samples were treated with inhibitor at indicated concentrations for 30 min at 37° C. GSH stock solution (250 mM in water) was diluted to 4 mM in assay buffer and 25 μl of diluted GSH solution was added to each sample. A substrate stock solution of 75 mM 1-bromo-2,4-dinitrobenzene […] in ethanol was diluted to 2 mM in assay buffer. Samples (25 μl) were aliquoted into a 96-well plate and spun briefly via centrifuge. Next, 50 μl of 2 mM BDNB was added to each well and the reaction was monitored in kinetic mode by measuring absorbance at 340 nm for 10 min on a BMG Labtech CLARIOstar plate reader (BMG Labtech, Cary, North Carolina, United States of America).
# DM93 and HEK293T cells = test: Proteome-wide profiling of sulfonyl imidazole analogs in live cells; type: cell-based, human; details: 100 μM, 2 hours, 37° C.
# Protocol: A chemical proteomic treatment and analysis protocol was established to evaluate the structural-induced effect on the proteomic coverage of the sulfonyl imidazole analogs. […] Duke Melanoma 93 (DM93) and human embryonic kidney 293T (HEK293T) cells were treated with the probes (100 μM, 2 hours, 37° C.). The cells were harvested, washed and fractionated to expose the proteome. The cytosolic proteome subsequently underwent copper-catalyzed azide-alkyne cycloaddition (CuAAC) with a dethiobiotin PEG-3 azide tag. The tagged proteomes were digested with trypsin lys-C protease mixture, enriched by avidin affinity chromatography, eluted and analyzed by chromatography-tandem high-resolution mass spectrometry (LC-MS). The bioinformatic match of probe modified peptides was filtered with data confidence control criteria of ≥300 Byonic score, ≥3 log probability and ≤5 ppm mass accuracy (amino acid residue modifications of Y, K, N, Q, and W were processed at this point).
# purified DPP3 = target: T3, purified DPP3 (Homo sapiens, UniProt Q9NY33); test: DPP3 biochemical substrate assay (Arg-Arg β-naphthylamide peptidase assay); details: negative control with cyclopropyl-modified AG
# T3 sequence (Q9NY33 1-737): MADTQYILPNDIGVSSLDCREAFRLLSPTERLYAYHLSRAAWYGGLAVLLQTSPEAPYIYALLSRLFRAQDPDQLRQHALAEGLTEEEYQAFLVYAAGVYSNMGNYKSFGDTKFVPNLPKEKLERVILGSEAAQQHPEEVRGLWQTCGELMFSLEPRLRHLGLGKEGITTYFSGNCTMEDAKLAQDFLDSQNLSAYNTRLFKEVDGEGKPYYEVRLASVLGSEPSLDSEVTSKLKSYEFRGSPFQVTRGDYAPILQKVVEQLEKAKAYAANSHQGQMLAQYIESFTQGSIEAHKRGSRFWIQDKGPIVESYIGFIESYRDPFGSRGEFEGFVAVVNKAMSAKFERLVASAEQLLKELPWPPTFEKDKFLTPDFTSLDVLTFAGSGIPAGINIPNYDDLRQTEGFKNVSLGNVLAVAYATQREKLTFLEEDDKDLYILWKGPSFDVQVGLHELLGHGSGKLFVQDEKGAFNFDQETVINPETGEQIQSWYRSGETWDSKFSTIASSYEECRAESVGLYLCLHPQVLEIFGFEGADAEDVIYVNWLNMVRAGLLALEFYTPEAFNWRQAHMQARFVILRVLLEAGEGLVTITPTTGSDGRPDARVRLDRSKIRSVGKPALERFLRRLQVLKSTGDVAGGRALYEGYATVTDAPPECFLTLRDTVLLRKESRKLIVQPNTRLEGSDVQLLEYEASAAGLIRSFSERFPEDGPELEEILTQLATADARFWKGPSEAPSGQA
# Protocol: DPP3 Biochemical Substrate Assay
# Substrate assays were performed using purified DPP3 protein diluted to 5 ng/μL in assay buffer. DPP3 samples (10 μl) were diluted to 85 μl with assay buffer and transferred to a black 96-well plate. Samples were treated with a 50× stock of SuTEx-fragment at indication concentration for 30 min at 37° C. A stock solution of DPP3 substrate (Arg-Arg β-naphthylamide trihydrochloride, 0.5 mM: Sigma-Aldrich. St, Louis, Missouri, United States of America) was diluted to 100 μM in assay buffer. Substrate solution (5 μl) was added to each sample. Samples were mixed briefly by shaking and reaction monitored in kinetic mode by measuring fluorescence at 450 nm for 10 min on a BMG Labtech CLARIOstar plate reader (BMG Labtech, Cary, North Carolina, United States of America).
# DM93 soluble proteomes = test: Proteome-wide competitive chemical proteomics of SuTEx fragments vs HHS-482; type: binding, human; details: fragment 50 μM, 30 min, 37° C.
# Protocol: Heavy and light proteomes (432 μl of each) were diluted to 2.3 mg ml^−1 in PBS and sample aliquots (432 μl) were treated with SuTEx fragment at the indicated concentrations (5 μl, 100× stock in DMSO), mixed gently and incubated for 30 min at 37° C. Samples were then treated with HHS-482 (5 μL, 5 mM stock in DMSO) for 30 min at 37° C. Probe-modified proteomes were conjugated to desthiobiotin-PEG3-azide followed by enrichment of probe-modified peptides for nano-electrospray ionization-LC-MS/MS analyses as previously described^57.
# The chemical proteomic method for functional tyrosine profiling^72 was tailored to investigate AG/LG effects on SuTEx fragment reactivity in complex proteomes. In brief, isotopically light and heavy soluble proteomes from DM93 melanoma cells cultured by stable isotopic labeling by amino acids in cell culture (SILAC^80) media were used for quantitative liquid chromatography-mass spectrometry (LC-MS) studies. Light and heavy DM93 proteomes were treated with dimethyl sulfoxide (DMSO) vehicle or SuTEx fragment (50 μM, 30 min, 37° C.), respectively, followed by labeling with the tyrosine-reactive probe HHS-482 described hereinabove (50 μM, 30 min, 37° C.) and copper-catalyzed azide-alkyne cycloaddition (CuAAC) conjugation of a desthiobiotin-azide enrichment tag. Proteomes were digested with trypsin protease, HHS-482-modified peptides enriched by avidin chromatography and analyzed by high-resolution LC-MS/MS and bioinformatics as described hereinabove.
# To evaluate substituent effects on proteome activity, reactivity profiles of each respective SuTEx fragment were compared across >1500 total distinct HHS-482-modified tyrosine sites from >650 detected proteins. Fragments were screened across independent biological replicates (n=2-3) and high-quality tyrosine site annotations were identified by detection in at least a single biological replicate from each fragment dataset, probe-specific enrichment (HHS-482 probe/DMSO SILAC ratio (SR)>5), and quality control confidence criteria of ≥300 Byonic score^31, […] protein false discovery rate (FDR), and ≤5 ppm mass accuracy in order to minimize the potential for false positives^72. SILAC ratios (SR) from competitive studies (Light-DMSO/Heavy-fragment) were used to identify fragment-competed tyrosine residues as sites showing >75% reduction in enrichment by HHS-482 compared with DMSO vehicle control (i.e. liganded tyrosines, SR>4). In total, 305 liganded tyrosines on 213 distinct proteins were identified, corresponding to ˜30% and ˜44% of total quantified tyrosines and proteins, respectively. […]
# A549 cells = test: Chemical phosphoproteomics of pervanadate-activated cells by SuTEx probe labeling (SILAC); type: cell-based, human; details: pervanadate 100 μM, 30 min, HHS-475 100 μM
# Protocol: Pervanadate (100 mM) was prepared as previously described^41 by mixing 100 μL of sodium orthovanadate (100 mM Na3VO4, New England BioLabs #P0758S, Ipswich, Massachusetts, United States of America) with 1 μL of hydrogen peroxide (H2O2, 30% v/v in water) on ice. […] After pervanadate treatment, cells were washed twice with cold PBS followed by harvest. Cell pellets were resuspended in PBS supplemented with protease and phosphatase inhibitor mini tablets (Thermo Scientific #A32959; ThermoFisher Scientific, Waltham, Massachusetts, United States of America) and then lysed by sonication (3×1 sec pulse, 20% amplitude). For CTNND1 western blot studies, cell pellets were lysed in NP40 Cell Lysis Buffer (#FNN0021, Invitrogen, Carlsbad, California, United States of America) supplemented with protease/phosphatase inhibitor tablets. Cell lysates were separated via centrifugation at 100,000×g for 45 min at 4° C. for western blot or chemical proteomic studies. Note: pervanadate treatments are performed on live cells but SuTEx probe labeling occurs in proteomes in vitro.
# Proteomes from cells treated with pervanadate activation conditions (100 μM, 30 min) were labeled with HHS-475 or HHS-482 (100 μM, 30 min) followed by CuAAC with desthiobiotin and quantitative LC-MS to evaluate how phosphorylation status affected SuTEx probe labeling. […] In total ˜2,200 probe-modified tyrosine sites were detected across ˜1,000 proteins using both HHS-475 and HHS-482 that were further separated into pervanadate-sensitive (PerS, SR≥2) and -insensitive groups (PerI, SR<2). The probe-modified tyrosines found in the PerS group appeared to be enriched for annotated phosphotyrosine sites (HTP≥10 in PhosphoSitePlus, see FIGS. 6C and 18) and represented only a small fraction of all unique HHS-475- and HHS-482-modified tyrosines detected by chemical proteomics (˜3%, 67 sites). […]
molecule,measurement,setting,value
O=C(NCc1ccccc1)c1ccc(S(=O)(=O)n2cnnc2)cc1 [HHS0401],"inhibition of FAAA, gel-based chemical proteomic analysis",[1]; FIG. 44C,dose-dependent inhibition
same,tyrosine residue of FAAA modified,[1]; ligand 25 μM,244
O=C(c1ccc(S(=O)(=O)n2cnnc2)cc1)N1CCC(c2ccccc2)CC1 [HHS0701],"inhibition of PTGR2, gel-based chemical proteomic screen",[2]; FIG. 45B,dose-dependent inhibition
same,tyrosine residue of PTGR2 modified,[2]; ligand 25 μM,100
"O=S(=O)(C1CC1)n1cnc(-c2ccncc2)n1 [JWB191, 4-(1-(Cyclopropylsulfonyl)-1H-1,2,4-triazol-3-yl)pyridine]",inhibitory activity against GSTP1,[3],lack of activity; also recorded: did not show inhibitory activity
"C#CCNC(=O)c1ccc(S(=O)(=O)n2cnc(C(F)(F)F)c2)cc1 [KY-Im-TFM, N-(prop-2-yn-1-yl)-4-((4-(trifluoromethyl)-1H-imidazol-1-yl)sulfonyl)benzamide]",Y/K specificity,DM93 and HEK293T cells,3.58
same,overall reactivity towards tyrosine and lysine residues (number of sites),DM93 and HEK293T cells,338
"COc1ccc(-c2ncn(S(=O)(=O)C3CC3)n2)cc1 [JWB131, 1-(Cyclopropylsulfonyl)-3-(4-methoxyphenyl)-1H-1,2,4-triazole]",activity against DPP3 in substrate assay,purified DPP3,inactive
same,reactivity against the proteome,DM93 soluble proteomes,largely unreactive
pervanadate,"SILAC ratio (SR, light PBS/heavy pervanadate) of SuTEx probe labeling at CTNND1 Y228",A549 cells,3.3
same,"SILAC ratio (SR, light PBS/heavy pervanadate) of SuTEx probe labeling at PKM Y105",A549 cells,1.1
same,"SILAC ratio (SR, light PBS/heavy pervanadate) of SuTEx probe labeling at STAT3 Y705",A549 cells,2.3
"C#CCNC(=O)c1ccc(S(=O)(=O)n2ccnc2)cc1 [HHS-Im-01, 4-((1H-imidazol-1-yl)sulfonyl)-N-(prop-2-yn-1-yl)benzamide]",Y/K specificity,DM93 and HEK293T cells,0.77
same,overall reactivity towards tyrosine and lysine residues (number of sites),DM93 and HEK293T cells,329
